Assays:
[1] = Inhibition of replication of R5 HIV1 Ba-L in MOLT4/CCR5 cells
[2] = Inhibition of membrane fusion between HIV1 JR-FL Env-expressing COS7 cells and MOLT4/CCR5

| SMILES | IC50 [1] [nM] | IC50 [2] [nM] |
| --- | --- | --- |
| CCCCOCCOc1ccc(-c2ccc3c(c2)C=C(C(=O)Nc2ccc([S+]([O-])Cc4cncn4CCC)cc2)CCCCN3CC(C)C)cc1 [(S)-(-)-9-{4-[2-(butoxy)ethoxy]phenyl}-1-isobutyl-N-(4-{[(1-propyl-1H-imidazol-5-yl)methyl]sulfinyl}phenyl)-2,3,4,5-tetrahydro-1H-1-benzazonine-6-carboxamide] | 2.1 | 0.48 |
| CCCCOCCOc1ccc(-c2ccc3c(c2)C=C(C(=O)Nc2ccc([S+]([O-])Cc4cncn4CCC)cc2)CCN3CC(C)C)cc1 (stereo not given) [7-(4-(2-butoxyethoxy)phenyl)-1-isobutyl-N-(4-((1-propyl-1H-imidazol-5-yl)methylsulfinyl)phenyl)-2,3-dihydro-1H-benzo[b]azepine-4-carboxamide] | 5.3 | 1 |
| CCCCOCCOc1ccc(-c2ccc3c(c2)C=C(C(=O)Nc2ccc([S+]([O-])Cc4nncn4CCC)cc2)CCCN3CC(C)C)cc1 (stereo not given) | – | 0.19 |
| CCCCOCCOc1ccc(-c2ccc3c(c2)C=C(C(=O)Nc2ccc([S+]([O-])Cc4cncn4CCC)cc2)CCCN3CCC)cc1 [(S)-(-)-8-{4-[2-(butoxy)ethoxy]phenyl}-1-propyl-N-(4-{[(1-propyl-1H-imidazol-5-yl)methyl]sulfinyl}phenyl)-1,2,3,4-tetrahydro-1-benzazocine-5-carboxamide] | 1.4 | 0.24 |
| CCCCOCCOc1ccc(-c2ccc3c(c2)C=C(C(=O)Nc2ccc([S+]([O-])Cc4nncn4CCC)cc2)CCCN3CCC)cc1 [(S)-(-)-8-{4-[2-(butoxy)ethoxy]phenyl}-1-propyl-N-(4-{[(4-propyl-4H-1,2,4-triazol-3-yl)methyl]sulfinyl}phenyl)-1,2,3,4-tetrahydro-1-benzazocine-5-carboxamide] | – | 0.95 |
| CCCCOCCOc1ccc(-c2ccc3c(c2)C=C(C(=O)Nc2ccc([S+]([O-])Cc4cncn4CCC)cc2)CCCN3Cc2cnn(C)c2)cc1 (stereo not given) | 2.3 | 0.21 |
